24 compounds from ChEMBL document CHEMBL1153482, “Design of selective Cathepsin inhibitors” (Bioorg Med Chem Lett, 2009) can be followed below.

The target of assay [1] is Cathepsin S (Homo sapiens, UniProt P25774). Put plainly: Inhibition of cathepsin S assessed as inhibition of fluorogenic substrate cleavage.
The target of assay [2] is Cathepsin B (Homo sapiens, UniProt P07858). Put plainly: Inhibition of human liver cathepsin B assessed as inhibition of fluorogenic substrate cleavage.
Assay [3] has as its target Procathepsin L (Homo sapiens, UniProt P07711). Nature of the assay: Inhibition of cathepsin L assessed as inhibition of fluorogenic substrate cleavage.
The target in assay [4] is T1, Cathepsin L2 (Homo sapiens, UniProt O60911).
T1 sequence (O60911 whole entry): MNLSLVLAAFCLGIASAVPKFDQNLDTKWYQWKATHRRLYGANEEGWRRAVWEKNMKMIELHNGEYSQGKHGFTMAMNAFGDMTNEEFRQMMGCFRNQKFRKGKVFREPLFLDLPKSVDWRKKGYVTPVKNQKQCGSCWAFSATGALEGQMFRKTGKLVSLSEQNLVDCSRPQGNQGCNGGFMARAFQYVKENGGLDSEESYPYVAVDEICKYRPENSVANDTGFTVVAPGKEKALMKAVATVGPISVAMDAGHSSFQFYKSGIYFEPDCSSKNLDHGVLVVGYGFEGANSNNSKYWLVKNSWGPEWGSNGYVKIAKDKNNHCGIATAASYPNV
Nature of the assay: Inhibition of cathepsin L2 assessed as inhibition of fluorogenic substrate cleavage.

Assay [5] addresses T2, Cathepsin K (Homo sapiens, UniProt P43235).
T2 sequence (P43235 whole entry): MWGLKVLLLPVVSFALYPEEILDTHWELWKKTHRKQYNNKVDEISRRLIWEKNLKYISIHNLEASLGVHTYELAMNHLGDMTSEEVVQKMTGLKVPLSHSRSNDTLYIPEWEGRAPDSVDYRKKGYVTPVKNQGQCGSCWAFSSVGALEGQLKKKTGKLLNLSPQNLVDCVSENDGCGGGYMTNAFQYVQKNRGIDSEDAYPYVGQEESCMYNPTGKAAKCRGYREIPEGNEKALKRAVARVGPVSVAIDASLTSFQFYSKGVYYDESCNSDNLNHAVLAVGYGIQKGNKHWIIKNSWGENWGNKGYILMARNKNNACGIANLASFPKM
Nature of the assay: Inhibition of cathepsin K assessed as inhibition of fluorogenic substrate cleavage.

The structures appear in SMILES notation.

Sequence of Procathepsin L (P07711 whole entry): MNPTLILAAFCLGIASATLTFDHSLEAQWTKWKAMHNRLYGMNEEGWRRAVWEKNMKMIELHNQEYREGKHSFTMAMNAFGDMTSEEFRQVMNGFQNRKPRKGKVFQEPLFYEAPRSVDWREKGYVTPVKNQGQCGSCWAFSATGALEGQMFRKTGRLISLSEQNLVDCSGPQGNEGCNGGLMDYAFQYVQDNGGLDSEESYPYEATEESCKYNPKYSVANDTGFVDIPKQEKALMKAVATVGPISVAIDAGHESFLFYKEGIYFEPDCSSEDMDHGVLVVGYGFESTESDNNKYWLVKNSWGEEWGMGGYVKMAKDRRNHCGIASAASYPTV
Sequence of Cathepsin S (P25774 whole entry): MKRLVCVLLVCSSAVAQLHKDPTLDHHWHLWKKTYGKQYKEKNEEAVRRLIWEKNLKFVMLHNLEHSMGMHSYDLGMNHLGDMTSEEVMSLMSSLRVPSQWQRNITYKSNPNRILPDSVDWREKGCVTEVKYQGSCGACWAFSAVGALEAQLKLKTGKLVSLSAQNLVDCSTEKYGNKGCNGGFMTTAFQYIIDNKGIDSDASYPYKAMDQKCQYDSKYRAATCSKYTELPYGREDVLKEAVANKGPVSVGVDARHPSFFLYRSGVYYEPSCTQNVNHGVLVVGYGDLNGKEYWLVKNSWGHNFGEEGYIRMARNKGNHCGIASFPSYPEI

Take `Cn1cc(-c2cccc(C[C@H](NC(=O)c3ccccc3)C(=O)NCC#N)c2)cn1`: the half-maximal inhibitory concentration (IC50) in assay [1] was 100 nM; in assay [2] it was 6310 nM; in assay [3], 501 nM; in assay [4], 1580 nM; in assay [5] it was > 10000 nM.

On to `N#CCNC(=O)[C@H](Cc1cccc(-c2nnco2)c1)NC(=O)c1ccccc1`, for which the IC50 in assay [1] was 20 nM; in assay [2], > 10000 nM; in assay [3], 501 nM; in assay [4], 158 nM; in assay [5], 1260 nM.

Consider `N#CCNC(=O)[C@H](Cc1cccc(-c2nncs2)c1)NC(=O)c1ccccc1`, for which the IC50 in assay [1] was 2.51 nM; in assay [2], > 10000 nM; in assay [3] it was 200 nM; in assay [4], 25.1 nM; in assay [5], 631 nM.

For the compound `Cc1cccc(C[C@H](NC(=O)c2cc(C(C)(C)C)nn2C)C(=O)NCC#N)c1`, the IC50 was 794 nM in assay [1], 3980 nM in assay [2], 398 nM in assay [4] and 2510 nM in assay [5].

With `Cn1nc(C(C)(C)C)cc1C(=O)N[C@@H](Cc1cccc(-c2nnc(CO)o2)c1)C(=O)NCC#N`, the IC50 was 63.1 nM in assay [1]; > 10000 nM in assay [2]; 6.31 nM in assay [3]; 7.94 nM in assay [4]; 100 nM in assay [5].

`Cc1nnc(-c2cccc(C[C@H](NC(=O)c3cc(C(C)(C)C)nn3C)C(=O)NCC#N)c2)o1`: the IC50 is 79.4 nM in assay [1]; > 10000 nM in assay [2]; 5.01 nM in assay [3]; 6.31 nM in assay [4]; 63.1 nM in assay [5].

As for `N#CCNC(=O)[C@H](Cc1cccc(-c2cccnn2)c1)NC(=O)c1ccccc1`, the IC50 in assay [1] is 7.94 nM; in assay [2] it was 6310 nM; in assay [3], 1260 nM; in assay [4], 63.1 nM; in assay [5], > 6310 nM.

`N#CCNC(=O)[C@H](Cc1cccc(-c2cn[nH]c2)c1)NC(=O)c1ccccc1`: the IC50 in assay [1] was 79.4 nM; in assay [2], 7940 nM; in assay [3], 794 nM; in assay [4] it was 1580 nM; in assay [5] it was > 10000 nM.

As for `N#CCNC(=O)[C@H](Cc1cccc(-c2cncnc2)c1)NC(=O)c1ccccc1`, the IC50 in assay [1] is 316 nM; in assay [2], > 10000 nM; in assay [3] it was 3980 nM; in assay [4], > 7940 nM; in assay [5] it was > 7940 nM.

With `N#CCNC(=O)[C@H](Cc1cccc(Cl)c1)NC(=O)c1ccccc1`, the IC50 was 126 nM in assay [1]; 5010 nM in assay [2]; 251 nM in assay [3]; 794 nM in assay [4]; 3160 nM in assay [5].

`N#CCNC(=O)[C@H](Cc1cccc(-c2ccncc2)c1)NC(=O)c1ccccc1`: the IC50 in assay [1] was 251 nM; in assay [2], > 10000 nM; in assay [3] it was 1580 nM; in assay [4], 3160 nM; in assay [5], > 10000 nM.

With `Cn1nc(C(C)(C)C)cc1C(=O)N[C@@H](Cc1cccc(Cl)c1)C(=O)NCC#N`, the IC50 in assay [1] is 1000 nM; in assay [2], 6310 nM; in assay [3] it was 12.6 nM; in assay [4], 200 nM; in assay [5], 3160 nM.

As for `Cn1nc(C(C)(C)C)cc1C(=O)N[C@@H](Cc1cccc(-c2nncs2)c1)C(=O)NCC#N`, the IC50 in assay [1] is 15.8 nM; in assay [2], > 10000 nM; in assay [3] it was 5.01 nM; in assay [4], 6.31 nM; in assay [5] it was 126 nM.

Turning to `COCc1nnc(-c2cccc(C[C@H](NC(=O)c3cc(C(C)(C)C)nn3C)C(=O)NCC#N)c2)o1`, the IC50 in assay [1] is 79.4 nM; in assay [2], > 10000 nM; in assay [3], 3.98 nM; in assay [4], 2 nM; in assay [5] it was 126 nM.

`Cn1nc(C(C)(C)C)cc1C(=O)N[C@@H](Cc1cccc(-c2nnc(CCN)o2)c1)C(=O)NCC#N`: the IC50 in assay [1] was 63.1 nM; in assay [2] it was 6310 nM; in assay [3] it was 1.26 nM; in assay [4], 100 nM; in assay [5] it was 158 nM.

For the compound `Cn1nc(C(C)(C)C)cc1C(=O)N[C@@H](Cc1cccc(-c2nnc(CN)o2)c1)C(=O)NCC#N`, the IC50 was 200 nM in assay [1]; 3980 nM in assay [2]; 2 nM in assay [3]; 39.8 nM in assay [4]; 1000 nM in assay [5].

On to `N#CCNC(=O)[C@H](Cc1cccc(-c2ccn[nH]2)c1)NC(=O)c1ccccc1`, for which the IC50 in assay [1] was 316 nM; in assay [2], 5010 nM; in assay [3], 1580 nM; in assay [4] it was 3980 nM; in assay [5], > 10000 nM.

For the compound `N#CCNC(=O)[C@H](Cc1cccc(-c2ccccn2)c1)NC(=O)c1ccccc1`, the IC50 in assay [1] was 631 nM; in assay [2], 6310 nM; in assay [3], 3160 nM; in assay [4], > 10000 nM; in assay [5], > 10000 nM.

On to `N#CCNC(=O)[C@H](Cc1cccc(-c2ccnnc2)c1)NC(=O)c1ccccc1`, for which the IC50 is 794 nM in assay [1]; > 10000 nM in assay [2]; > 7940 nM in assay [3]; > 10000 nM in assay [4]; > 10000 nM in assay [5].

As for `Cn1cc(-c2cccc(C[C@H](NC(=O)c3cc(C(C)(C)C)nn3C)C(=O)NCC#N)c2)cn1`, the half-maximal inhibitory concentration (IC50) in assay [1] was 316 nM; in assay [2] it was > 10000 nM; in assay [3], 15.8 nM; in assay [4], 158 nM; in assay [5] it was 6310 nM.

As for `Cn1nccc1-c1cccc(C[C@H](NC(=O)c2ccccc2)C(=O)NCC#N)c1`, the half-inhibitory concentration (IC50) in assay [1] was 316 nM; in assay [2] it was 7940 nM; in assay [3] it was 3160 nM; in assay [4], 3160 nM; in assay [5], > 10000 nM.

For the compound `N#CCNC(=O)[C@H](Cc1cccc(-c2cccnc2)c1)NC(=O)c1ccccc1`, the IC50 in assay [1] is 126 nM; in assay [2] it was 7940 nM; in assay [3] it was 2000 nM; in assay [4], 3980 nM; in assay [5], > 7940 nM.

Turning to `Cn1nc(C(C)(C)C)cc1C(=O)N[C@@H](Cc1cccc(-c2nnco2)c1)C(=O)NCC#N`, the IC50 is 63.1 nM in assay [1]; > 10000 nM in assay [2]; 15.8 nM in assay [3]; 20 nM in assay [4]; 126 nM in assay [5].

As to `Cc1nnc(-c2cccc(C[C@H](NC(=O)c3cc(C(C)(C)C)nn3C)C(=O)NCC#N)c2)s1`, the IC50 was 316 nM in assay [1]; > 10000 nM in assay [2]; 126 nM in assay [3]; 3.16 nM in assay [4]; 3160 nM in assay [5].

In general, IC50 refers to the concentration at which inhibition is half-maximal.
